Assay results as given in ChEMBL document CHEMBL1157815, “Antiproliferative activity of withanolides against human breast cancer cell lines” (2010).

Key:
Format in all cases: functional
T47D = test: Antiproliferative activity against human T47D cells expressing estrogen receptor after 48 hrs by SRB assay
[1] = Antiproliferative activity against human MCF7/BUS cells expressing estrogen receptor after 48 hrs by SRB assay
MDA-MB-231 = test: Antiproliferative activity against estrogen receptor deficient human MDA-MB-231 cells after 48 hrs by SRB assay; conditions: MDA-MB-231, 48 h
SK-BR-3 = test: Antiproliferative activity against estrogen receptor deficient human SKBR3 cells after 48 hrs by SRB assay; conditions: SK-BR-3, 48 h
MCF7 = test: Antiproliferative activity against human MCF7 cells expressing estrogen receptor after 48 hrs by SRB assay; conditions: MCF7, 48 h

Row | SMILES | GI50 (T47D) [µM] | GI50 [1] [µM] | GI50 (MDA-MB-231) [µM] | GI50 (SK-BR-3) [µM] | GI50 (MCF7) [µM]
1 | CCO[C@@]12C[C@H]3[C@@H](C[C@@H](O)[C@@]4(Cl)CC=CC(=O)[C@]34C)[C@@H]3CC[C@@](O)([C@H](C)[C@@H]([C@@H]4O[C@H](O)[C@@]5(C)O[C@@]45C)O1)[C@]32C | 13 | 5.1 | 10 | 3.4 | 3.9
2 | CO[C@@]12C[C@@H]3c4c(O)cccc4[C@H](O)C[C@H]3[C@@H]3CC[C@@](O)([C@H](C)[C@@H]([C@@H]4OC(=O)C(C)=C4C)O1)[C@]32C | > 100 | > 100 | > 100 | > 100 | > 100
3 | CC1=C(C)C(=O)O[C@@H]([C@](C)(O)[C@]2(O)CC[C@@]3(O)[C@@H]4C[C@H]5O[C@]56[C@@H](O)C=CC(=O)[C@]6(C)[C@H]4CC[C@]23C)C1 | 2.2 | 1.1 | 2.1 | 1.7 | 1
4 | CCO[C@@]12C[C@H]3[C@@H](C[C@@H](O)[C@@]4(Cl)CC=CC(=O)[C@]34C)[C@@H]3CC[C@@](O)([C@H](C)[C@@H]([C@@H]4OC(=O)C(C)=C4C)O1)[C@]32C [12-O-ETHYLJABOROSALACTONE 42] | 3.9 | 3 | 3.7 | 2.5 | 3
5 | CO[C@@]12C[C@H]3[C@@H](C[C@H]4O[C@]45CC=CC(=O)[C@]35C)[C@@H]3CC[C@@](O)([C@@H]([C@H]4CC(C)=C(C)C(=O)O4)CO1)[C@]32C [12-O-METHYLJABOROSALACTONE 38] | 3.9 | 2.7 | 2.8 | 2 | 2.9
6 | CC[C@@]1(O)C(=O)OCc2c1cc1n(c2=O)Cc2cc3ccccc3nc2-1 [CAMPTOTHECIN] | 2 | 0.21 | 1.3 | 0.15 | 0.28
7 | O=c1[nH]cc(F)c(=O)[nH]1 [FLUOROURACIL] | 47 | 6.2 | 54 | 3 | 8.3
8 | C[C@]12CC[C@H]3C(=C1[C@H]1C[C@@]2(O)[C@](C)([C@H]2C[C@]4(C)O[C@]4(C)[C@H](O)O2)C1)C[C@@H](O)[C@@]1(O)CC=CC(=O)[C@]31C [JABOROSALACTOL20] | > 100 | > 100 | > 100 | > 100 | > 100
9 | C[C@@H]1[C@@H]([C@@H]2O[C@H](O)[C@@]3(C)O[C@@]23C)O[C@@]2(O)C[C@H]3[C@@H](C[C@H]4O[C@]45CC=CC(=O)[C@]35C)[C@@H]3CC[C@]1(O)[C@]32C [JABOROSALACTOL 24] | 6.5 | 2.6 | 8.7 | 2.3 | 3.6
10 | C[C@@H]1[C@@H]([C@@H]2O[C@H](O)[C@@]3(C)O[C@@]23C)O[C@@]2(O)C[C@H]3[C@@H](CC=C4CC=CC(=O)[C@@]43C)[C@@H]3CC[C@]1(O)[C@]32C [JABOROSALACTOL] | 30 | 18 | 19 | 18 | 14
11 | CC1=C(C)[C@]2(OC1=O)C(=O)C(C)=C1CC[C@H]3[C@@H]4C[C@H]5O[C@]56CC=CC(=O)[C@]6(C)[C@H]4C[C@@]2(O)[C@]13C [JABOROSALACTONE 1] | 3.4 | 3.3 | 2.5 | 2 | 3.2
12 | CC1=C(C)C(=O)O[C@@H]([C@H]2CO[C@@]3(O)C[C@H]4[C@@H](C[C@H]5O[C@]56CCCC(=O)[C@]46C)[C@@H]4CC[C@]2(O)[C@]43C)C1 [JABOROSALACTONE 39] | 38 | 29 | 35 | 34 | 25
13 | CC1=C(C)[C@H]([C@H]2O[C@@]3(O)C[C@H]4[C@@H](C[C@@H](O)[C@@]5(Cl)CC=CC(=O)[C@]45C)[C@@H]4CC[C@@](O)([C@@H]2C)[C@]43C)OC1=O [JABOROSALACTONE 42] | 3.5 | 2.6 | 3.2 | 2.5 | 2.4
14 | CC1=C(C)[C@H]([C@H]2O[C@@]3(O)C[C@@H]4c5c(O)cccc5[C@H](O)C[C@H]4[C@@H]4CC[C@@](O)([C@@H]2C)[C@]43C)OC1=O [JABOROSALACTONE 45] | > 100 | > 100 | > 100 | > 100 | > 100
15 | CC1=C(C)C(=O)O[C@]2(C1)O[C@@]1(O)C[C@H]3[C@@H](C[C@H]4O[C@]45CC=CC(=O)[C@]35C)[C@@H]3CC[C@@](O)([C@@H]2C)[C@]31C [JABOROSALACTONE 46] | 3.7 | 2.9 | 3.5 | 2.5 | 2.8
16 | CC1=C(C)[C@]2(OC1=O)[C@H](O)[C@@H](C)[C@]1(O)CC[C@H]3[C@@H]4CC=C5CC=CC(=O)[C@]5(C)[C@H]4C[C@@]2(O)[C@@]31C [JABOROSALACTONE P] | 61 | 33 | 49 | 29 | 35
17 | CC1=C(C)C(=O)O[C@@H]([C@H]2CO[C@@]3(O)C[C@H]4[C@@H](C[C@H]5O[C@]56CC=CC(=O)[C@]46C)[C@@H]4CC[C@]2(O)[C@]43C)C1 [JABOROSALACTONE] | 4.1 | 2.8 | 3.4 | 2.6 | 2.9
18 | CC1=C(C)[C@H]([C@H]2O[C@@]3(O)C[C@H]4[C@@H](C[C@@H](O)[C@@]5(O)CC=CC(=O)[C@]45C)[C@@H]4CC[C@@](O)([C@@H]2C)[C@]43C)OC1=O [JABOROTETROL] | > 100 | > 100 | > 100 | > 100 | > 100
19 | C[C@@H](C1=CC(=O)[C@H]2[C@@H]3C[C@H]4O[C@]45CC=CC(=O)[C@]5(C)[C@H]3CC[C@]12C)C1C[C@]2(C)O[C@]2(C)[C@H](O)O1 (stereo not given in full) [SALPICHROLIDE D] | 17 | 13 | 21 | 21 | 22
20 | C[C@@H](c1cc(O)c2c(c1)CC[C@H]1[C@H]2C[C@@H]2O[C@@]23CC=CC(=O)[C@]13C)[C@@H]1C[C@@H]2O[C@@H]2[C@H](O)O1 [SALPICHROLIDE G] | 14 | 5.7 | 14 | 3.4 | 5.1
21 | CC1=C(C)[C@H]([C@H]2O[C@@]3(O)C[C@H]4[C@@H](C[C@H]5O[C@]56CC=CC(=O)[C@]46C)[C@@H]4CC[C@@](O)([C@@H]2C)[C@]43C)OC1=O [TRECHONOLIDE A] | 4.3 | 3.1 | 6.3 | 1.9 | 3.9
22 | CC1=C(C)C(=O)O[C@@H]([C@](C)(O)[C@]2(O)CC[C@@]3(O)[C@@H]4C[C@H]5O[C@]56CC=CC(=O)[C@]6(C)[C@H]4CC[C@]23C)C1 [WITHANOLIDE E] | 0.16 | 0.42 | 0.24 | 0.71 | 0.31
